Source: patent publication US9403823B2, “Protein kinase inhibitors” (ORIBASE PHARMA, priority 2012, dated 2016)
Like-named read-outs stand apart in the source and are kept apart here. Marks after values point to notes of the source that are not given here.

How the values were obtained:
[1] = target: T1, FGFR2 (Homo sapiens, UniProt P21802); assay: In vitro kinase assay (Z'-LYTE), FGFR2; type: biochemical; details: read-out: % of inhibition of the kinase compared to the control
T1 construct: purchased Invitrogen
T1 sequence (P21802 22-821): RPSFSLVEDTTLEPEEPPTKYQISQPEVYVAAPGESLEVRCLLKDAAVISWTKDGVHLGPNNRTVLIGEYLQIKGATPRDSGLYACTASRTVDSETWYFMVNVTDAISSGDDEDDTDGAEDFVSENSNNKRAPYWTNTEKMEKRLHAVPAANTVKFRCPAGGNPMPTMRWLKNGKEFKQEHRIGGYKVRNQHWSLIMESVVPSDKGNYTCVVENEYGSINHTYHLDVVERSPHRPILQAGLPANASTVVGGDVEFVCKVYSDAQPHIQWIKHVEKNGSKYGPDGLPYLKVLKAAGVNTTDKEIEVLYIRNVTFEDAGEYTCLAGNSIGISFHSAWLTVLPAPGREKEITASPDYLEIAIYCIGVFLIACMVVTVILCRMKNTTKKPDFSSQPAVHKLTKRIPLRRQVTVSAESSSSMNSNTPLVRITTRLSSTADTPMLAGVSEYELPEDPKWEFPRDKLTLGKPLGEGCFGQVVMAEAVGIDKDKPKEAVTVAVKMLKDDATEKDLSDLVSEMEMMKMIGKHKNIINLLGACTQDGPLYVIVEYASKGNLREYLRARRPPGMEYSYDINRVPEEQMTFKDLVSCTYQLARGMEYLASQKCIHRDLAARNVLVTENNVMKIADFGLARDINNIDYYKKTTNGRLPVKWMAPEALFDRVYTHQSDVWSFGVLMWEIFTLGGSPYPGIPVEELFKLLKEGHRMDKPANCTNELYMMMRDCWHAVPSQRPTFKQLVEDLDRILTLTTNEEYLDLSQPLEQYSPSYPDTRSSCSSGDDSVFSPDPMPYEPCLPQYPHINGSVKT
How it was run: (§1)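 Z'-LYTE, HEPES pH 7.5/MgCl2/EGTA/BRIJ-35 buffer, 1% DMSO; cpd 100 nM (ABL, ABL T315I: 10 μM); ratiometric FRET read-out after protease development; % inhibition.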

[2] = tested on: H1975 cell line; assay: In vitro cell proliferation assay (MTT), H1975; type: cell-based; details: Homo sapiens, read-out: EC50, anti-proliferative activity
Method: (§2) 2) In Vitro Cell Proliferation Assays (Table 22 to Table 35)
(§3) Cancer cell lines (5×10^3 cells per well) or HUVEC (1×10^4 cells per well) or HRMEC (1×10^4 cells per well) were distributed in 96-well plates and incubating in duplicate with escalating concentrations (10 nM to 3 μM) of compounds for 72 hr. Cell proliferation was measured using MTT (3[4,5-dimethylthiazol-2-yl]-2,5-diphenyltetrazolium bromide).

[3] = target: T2, ABL (Homo sapiens, UniProt P00519); assay: In vitro kinase assay (Z'-LYTE), ABL; type: biochemical; details: read-out: % of inhibition of the kinase compared to the control
T2 construct: purchased Invitrogen
Method: (§4) 1) In Vitro Kinase Assays (Table 10 to Table 21)
(§5) The inhibitory activity of the compounds on several kinases including BRAF, EGFR (ErbB1), EGFR (ErbB1) T790M L858R, FGFR2, KDR (VEGFR2), PDGFRA (PDGFR alpha), SRC and other was evaluated by Invitrogen using the Z′-LYTE® technology. Briefly, the Z′-LYTE® biochemical assay employs a fluorescence-based, coupled-enzyme format and is based on the differential sensitivity of phosphorylated and non-phosphorylated peptides to proteolytic cleavage. The peptide substrate is labeled with two fluorophores—one at each end—that make up a FRET pair. A ratiometric method, which calculates the ratio (the Emission Ratio) of donor emission to acceptor emission after excitation of the donor fluorophore at 400 nm, is used to quantitate reaction progress.
(§6) The compounds are screened in 1% DMSO (final) in the well. For 10 point titrations, 3-fold serial dilutions are conducted from the starting concentration. All Peptide/Kinase Mixtures are diluted to a 2× working concentration in the appropriate Kinase Buffer. All ATP Solutions are diluted to a 4× working concentration in Kinase Buffer (50 mM HEPES pH 7.5, 0.01% BRIJ-35, 10 mM MgCl2, 1 mM EGTA). ATP Km apparent is previously determined using a Z′-LYTE® assay.
(§7) Each compound was incubated at a concentration of 100 nM (excepted to test the activity against ABL and ABL T315I for which the compounds were incubated at a concentration of 10 μM) and the tables 10 to 21 summarize the results obtained showing the inhibitory power of a compound.

[4] = target: T3, BRAF (Homo sapiens, UniProt P15056); assay: In vitro kinase assay (Z'-LYTE), BRAF; type: biochemical; details: read-out: % of inhibition of the kinase compared to the control
T3 construct: purchased Invitrogen
T3 sequence (P15056 whole entry): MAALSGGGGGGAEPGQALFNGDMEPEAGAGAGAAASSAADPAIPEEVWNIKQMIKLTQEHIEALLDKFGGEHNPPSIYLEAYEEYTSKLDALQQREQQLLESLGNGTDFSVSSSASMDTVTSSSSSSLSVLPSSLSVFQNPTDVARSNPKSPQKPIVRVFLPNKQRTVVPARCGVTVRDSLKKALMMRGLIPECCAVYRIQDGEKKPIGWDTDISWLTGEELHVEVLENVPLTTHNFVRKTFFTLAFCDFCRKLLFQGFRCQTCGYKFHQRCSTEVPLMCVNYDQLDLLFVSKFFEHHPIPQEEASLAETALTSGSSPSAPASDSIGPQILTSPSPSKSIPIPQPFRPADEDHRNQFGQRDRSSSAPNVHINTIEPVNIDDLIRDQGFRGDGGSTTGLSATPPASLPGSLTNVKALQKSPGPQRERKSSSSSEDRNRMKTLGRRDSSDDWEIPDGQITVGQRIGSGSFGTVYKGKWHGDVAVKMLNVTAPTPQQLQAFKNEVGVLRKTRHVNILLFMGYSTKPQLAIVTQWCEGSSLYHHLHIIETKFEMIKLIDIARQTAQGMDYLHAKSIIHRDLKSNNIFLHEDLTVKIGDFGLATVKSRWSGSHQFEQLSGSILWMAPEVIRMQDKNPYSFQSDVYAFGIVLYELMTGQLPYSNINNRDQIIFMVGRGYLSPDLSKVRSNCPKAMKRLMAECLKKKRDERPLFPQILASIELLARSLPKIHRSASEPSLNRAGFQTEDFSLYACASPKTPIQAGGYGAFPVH
How it was run: as §1

[5] = target: T4, SRC (Homo sapiens, UniProt P12931); assay: In vitro kinase assay (Z'-LYTE), SRC; type: biochemical; details: read-out: % of inhibition of the kinase compared to the control
T4 construct: purchased Invitrogen
T4 sequence (P12931 whole entry): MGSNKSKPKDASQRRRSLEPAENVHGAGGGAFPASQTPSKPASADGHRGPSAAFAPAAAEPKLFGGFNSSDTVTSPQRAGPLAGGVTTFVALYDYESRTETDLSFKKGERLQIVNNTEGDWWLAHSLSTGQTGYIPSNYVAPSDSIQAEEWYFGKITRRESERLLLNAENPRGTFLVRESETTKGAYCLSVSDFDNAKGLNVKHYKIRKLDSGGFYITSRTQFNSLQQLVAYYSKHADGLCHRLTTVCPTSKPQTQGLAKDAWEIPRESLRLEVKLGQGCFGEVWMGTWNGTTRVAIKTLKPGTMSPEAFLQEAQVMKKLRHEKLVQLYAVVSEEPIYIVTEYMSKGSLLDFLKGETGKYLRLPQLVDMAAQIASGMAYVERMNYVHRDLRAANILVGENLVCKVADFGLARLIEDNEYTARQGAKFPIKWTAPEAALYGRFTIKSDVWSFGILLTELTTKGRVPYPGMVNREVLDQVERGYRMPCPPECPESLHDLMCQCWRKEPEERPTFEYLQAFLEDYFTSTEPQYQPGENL
How it was run: as §1

[6] = target: T5, PDGFRA (PDGFR alpha) (Homo sapiens, UniProt P16234); assay: In vitro kinase assay (Z'-LYTE), PDGFRA; type: biochemical; details: read-out: % of inhibition of the kinase compared to the control
T5 construct: purchased Invitrogen
How it was run: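 Compounds at a single dose (100 nM; 10 μM for both ABL forms) were run in a fluorescence coupled-enzyme kinase format relying on differential protease sensitivity of phospho versus non-phospho peptide. Reaction progress was measured ratiometrically from the FRET pair.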

[7] = target: T6, EGFR (ErbB1) (Homo sapiens, UniProt P00533); assay: In vitro kinase assay (Z'-LYTE), EGFR (ErbB1); type: biochemical; details: read-out: % of inhibition of the kinase compared to the control
T6 construct: purchased Invitrogen
T6 sequence (P00533 25-1210): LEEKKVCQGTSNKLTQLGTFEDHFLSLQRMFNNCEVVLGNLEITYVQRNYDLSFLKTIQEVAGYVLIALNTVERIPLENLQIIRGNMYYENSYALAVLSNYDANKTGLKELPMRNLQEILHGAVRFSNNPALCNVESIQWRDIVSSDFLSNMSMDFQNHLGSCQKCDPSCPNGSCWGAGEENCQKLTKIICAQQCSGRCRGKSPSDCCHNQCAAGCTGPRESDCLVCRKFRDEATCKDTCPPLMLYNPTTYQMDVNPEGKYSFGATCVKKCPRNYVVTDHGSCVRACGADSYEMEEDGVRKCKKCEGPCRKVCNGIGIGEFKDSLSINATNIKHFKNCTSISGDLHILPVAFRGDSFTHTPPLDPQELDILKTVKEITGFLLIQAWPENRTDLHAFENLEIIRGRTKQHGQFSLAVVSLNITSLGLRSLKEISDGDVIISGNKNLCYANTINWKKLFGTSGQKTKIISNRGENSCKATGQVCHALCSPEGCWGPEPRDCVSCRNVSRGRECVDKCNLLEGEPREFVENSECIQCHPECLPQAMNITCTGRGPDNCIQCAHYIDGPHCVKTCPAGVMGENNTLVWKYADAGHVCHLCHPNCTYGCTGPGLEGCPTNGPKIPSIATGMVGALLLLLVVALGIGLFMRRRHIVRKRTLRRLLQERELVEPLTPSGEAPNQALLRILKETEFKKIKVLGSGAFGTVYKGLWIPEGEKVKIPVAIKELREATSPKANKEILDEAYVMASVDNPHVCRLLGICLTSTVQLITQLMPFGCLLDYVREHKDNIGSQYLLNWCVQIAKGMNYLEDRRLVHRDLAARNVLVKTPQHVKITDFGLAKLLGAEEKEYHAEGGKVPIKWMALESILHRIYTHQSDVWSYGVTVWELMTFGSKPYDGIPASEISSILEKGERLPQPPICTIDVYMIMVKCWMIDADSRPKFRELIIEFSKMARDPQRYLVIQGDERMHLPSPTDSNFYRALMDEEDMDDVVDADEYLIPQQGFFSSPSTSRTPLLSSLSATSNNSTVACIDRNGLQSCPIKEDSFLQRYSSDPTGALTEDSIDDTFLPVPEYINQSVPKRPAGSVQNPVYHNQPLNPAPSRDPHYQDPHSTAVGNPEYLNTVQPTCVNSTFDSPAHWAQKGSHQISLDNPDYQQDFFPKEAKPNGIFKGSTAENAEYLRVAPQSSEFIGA
How it was run: as §1

[8] = target: T7, ABL T315I (Homo sapiens, UniProt P00519, T315I); assay: In vitro kinase assay (Z'-LYTE), ABL T315I; type: biochemical; details: read-out: % of inhibition of the kinase compared to the control
T7 construct: purchased Invitrogen
Method: as §4, §5, §6, §7

[9] = tested on: HT29 cell line; assay: In vitro cell proliferation assay (MTT), HT29; type: cell-based; details: Homo sapiens, read-out: EC50, anti-proliferative activity
Method: as §2, §3

[10] = target: T8, EGFR (ErbB1) T790M L858R (Homo sapiens, UniProt P00533, L858R/T790M); assay: In vitro kinase assay (Z'-LYTE), EGFR (ErbB1) T790M L858R; type: biochemical; details: read-out: % of inhibition of the kinase compared to the control
T8 construct: purchased Invitrogen
How it was run: as §1

[11] = tested on: BxPC-3 cell line; assay: In vitro cell proliferation assay (MTT), BxPC-3; type: cell-based; details: Homo sapiens, read-out: EC50, anti-proliferative activity
Method: as §2, §3

[12] = tested on: HepG2 cell line; assay: In vitro cell proliferation assay (MTT), HepG2; type: cell-based; details: Homo sapiens, read-out: EC50, anti-proliferative activity
How it was run: (§8)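 MTT readout of proliferation after 72 hr compound exposure; tumour lines 5×10^3 cells/well, HRMEC 1×10^4 cells/well; dose range 10 nM–3 μM, duplicates.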

[13] = tested on: A549 cell line; assay: In vitro cell proliferation assay (MTT), A549; type: cell-based; details: Homo sapiens, read-out: EC50, anti-proliferative activity
How it was run: as §8

[14] = target: T9, KDR (VEGFR2) (Homo sapiens, UniProt P35968); assay: In vitro kinase assay (Z'-LYTE), KDR (VEGFR2); type: biochemical; details: read-out: % of inhibition of the kinase compared to the control
T9 construct: purchased Invitrogen
T9 sequence (P35968 20-1356): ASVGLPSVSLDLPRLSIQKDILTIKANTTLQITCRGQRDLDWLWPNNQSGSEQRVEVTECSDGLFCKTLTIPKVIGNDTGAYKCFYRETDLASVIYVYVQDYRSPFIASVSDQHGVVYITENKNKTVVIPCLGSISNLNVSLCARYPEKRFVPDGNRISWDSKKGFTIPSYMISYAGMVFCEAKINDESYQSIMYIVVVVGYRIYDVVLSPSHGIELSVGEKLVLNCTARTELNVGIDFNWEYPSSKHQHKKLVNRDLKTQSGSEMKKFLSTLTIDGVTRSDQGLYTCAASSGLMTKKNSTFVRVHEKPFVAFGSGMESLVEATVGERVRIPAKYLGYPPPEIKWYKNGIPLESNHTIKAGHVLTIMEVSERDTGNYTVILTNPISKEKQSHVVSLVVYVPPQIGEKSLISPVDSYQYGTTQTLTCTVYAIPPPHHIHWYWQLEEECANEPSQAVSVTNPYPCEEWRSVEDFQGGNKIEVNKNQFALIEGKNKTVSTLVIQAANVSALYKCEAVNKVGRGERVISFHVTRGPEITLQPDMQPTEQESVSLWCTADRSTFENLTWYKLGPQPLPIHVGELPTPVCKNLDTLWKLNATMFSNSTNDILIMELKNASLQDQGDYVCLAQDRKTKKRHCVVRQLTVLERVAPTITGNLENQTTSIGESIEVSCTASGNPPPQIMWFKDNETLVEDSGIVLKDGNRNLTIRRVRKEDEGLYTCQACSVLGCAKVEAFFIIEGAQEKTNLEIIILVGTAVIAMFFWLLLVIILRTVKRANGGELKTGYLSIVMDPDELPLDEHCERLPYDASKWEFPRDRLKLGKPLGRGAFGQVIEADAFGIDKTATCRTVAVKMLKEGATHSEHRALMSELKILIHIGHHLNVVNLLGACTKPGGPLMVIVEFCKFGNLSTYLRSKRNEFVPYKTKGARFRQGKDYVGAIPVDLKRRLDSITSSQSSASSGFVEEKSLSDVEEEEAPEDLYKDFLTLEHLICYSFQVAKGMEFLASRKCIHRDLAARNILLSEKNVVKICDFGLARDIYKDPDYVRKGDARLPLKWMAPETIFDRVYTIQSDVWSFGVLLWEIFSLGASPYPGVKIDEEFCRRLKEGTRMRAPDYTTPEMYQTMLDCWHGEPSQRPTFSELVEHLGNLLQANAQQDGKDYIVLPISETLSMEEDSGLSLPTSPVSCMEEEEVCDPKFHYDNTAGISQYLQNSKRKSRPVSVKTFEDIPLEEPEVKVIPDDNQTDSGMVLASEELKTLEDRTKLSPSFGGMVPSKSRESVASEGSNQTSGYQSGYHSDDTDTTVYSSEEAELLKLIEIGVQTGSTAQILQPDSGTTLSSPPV
How it was run: as §1

[15] = tested on: MDA-MB-231 cell line; assay: In vitro cell proliferation assay (MTT), MDA-MB-231; type: cell-based; details: Homo sapiens, MDA-MB-231, 72 h; read-out: EC50, anti-proliferative activity
How it was run: as §8

[16] = tested on: HRMEC cells; assay: In vitro cell proliferation assay (MTT), HRMEC; type: cell-based; details: 72 h, read-out: EC50, anti-proliferative activity
Method: as §2, §3

[17] = tested on: HuH7 cell line; assay: In vitro cell proliferation assay (MTT), HuH7; type: cell-based; details: Homo sapiens, Huh-7, 72 h; read-out: EC50, anti-proliferative activity
Method: as §2, §3

[18] = tested on: HuCCT1 cell line; assay: In vitro cell proliferation assay (MTT), HuCCT1; type: cell-based; details: Homo sapiens, HuCCT-1, 72 h; read-out: EC50, anti-proliferative activity
Method: as §2, §3

[19] = tested on: HeLa cell line; assay: In vitro cell proliferation assay (MTT), HeLa; type: cell-based; details: Homo sapiens, 72 h, read-out: EC50, anti-proliferative activity
How it was run: as §8

[20] = tested on: HUVEC; assay: In vitro cell proliferation assay (MTT), HUVEC; type: cell-based; details: Homo sapiens, 72 h, read-out: EC50, anti-proliferative activity
How it was run: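 Anti-proliferative effects on human umbilical vein endothelial cells were assessed by an MTT (3[4,5-dimethylthiazol-2-yl]-2,5-diphenyltetrazolium bromide) readout. Cells (1×10^4 cells per well) in 96-well plates were incubated in duplicate for 72 hr with escalating test compound concentrations spanning 10 nM to 3 μM.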

[21] = tested on: HuH6 Clone 5 cell line; assay: In vitro cell proliferation assay (MTT), HuH6 Clone 5; type: cell-based; details: HUH-6-clone5, 72 h; read-out: EC50, anti-proliferative activity
Method: as §2, §3

[22] = tested on: PC3 cell line; assay: In vitro cell proliferation assay (MTT), PC3; type: cell-based; details: Homo sapiens, PC-3, 72 h; read-out: EC50, anti-proliferative activity
Method: as §2, §3

[23] = tested on: Caki-2; assay: In vitro cell proliferation assay (MTT), Caki-2; type: cell-based; details: Homo sapiens, CAKI-2, 72 h; read-out: EC50, anti-proliferative activity
Method: as §2, §3

[24] = tested on: HepG2 cells; assay: Human hepatocellular carcinoma mouse model (HepG2 xenograft); type: in vivo, athymic nude male mice; details: 20 mg/kg q.d. per os for 15 consecutive days
Method: 3) In Vivo Studies (Table 36)
Human hepatocellular carcinoma mouse model was prepared by subcutaneously implanting HepG2 cells (1×10^7 cell/mL in sterile PBS), into the right flank of athymic nude male mice (HSD, 6-7 weeks old). When the tumor volume reached approximately 200 mm^3, mice were assigned randomly to either vehicle alone or ORB compounds treatment groups (six mice per group). Mice were treated with either vehicle (PEG400) or OR0720, OR0721, OR0811 (20 mg/kg q.d.; per os for 15 consecutive days).
Tumor volumes in mm^3 were determined three times a week with a digital caliper and calculated using the following formula: Tumor Volume (mm)=length (mm)×width (mm)×width (mm)×½. Body weight was measured three times a week, and mice were observed daily for monitoring signs of stress to detect possible toxicities. One-way ANOVA was used for statistical comparisons. Data were analyzed with Prism 5.0 b (GraphPad Software) by one-way ANOVA with Bonferroni post hoc. Tumor Growth Inhibition (TGI) is calculated as the percent decrease of tumor growth at the end of the study in the ORB compounds treatment groups in comparison to the vehicle alone treatment group.

| SMILES | inhibition at 0.1 µM [1] [%] | EC50 ([2]; NCI-H1975, H1975, 72 hr, MTT) [nM] | inhibition at 0.1 µM [4] [%] | inhibition at 0.1 µM [5] [%] | inhibition at 0.1 µM [6] [%] | inhibition at 0.1 µM [7] [%] | inhibition at 0.1 µM [10] [%] | inhibition at 0.1 µM [14] [%] | EC50 [15] [nM] | EC50 [16] [nM] | EC50 ([9]; HT-29, 72 h) [nM] | EC50 [17] [nM] | EC50 ([11]; BXPC-3, 72 h) [nM] | EC50 ([12]; HepG2, 72 h) [nM] | EC50 [20] [nM] | EC50 ([13]; A549, 72 h) [nM] | also measured |
| --- | --- | --- | --- | --- | --- | --- | --- | --- | --- | --- | --- | --- | --- | --- | --- | --- | --- |
| Cc1ccc(NC(=O)c2ccc(CN3CCC(N(C)C)C3)c(C(F)(F)F)c2)cc1CNc1cnc2[nH]c(C(=O)O)cc2c1 (centres unmarked) [OR0528, 5-{5-[4-(3-Dimethylamino-pyrrolidin-1-ylmethyl)-3-trifluoromethyl-benzoylamino]-2-methyl-benzylamino}-1H-pyrrolo[2,3-b]pyridine-2-carboxylic acid] | ≥ 50 | ≥ 1000 | < 50 | ≥ 50 | ≥ 50 | ≥ 50 | ≥ 50 | ≥ 50 |  |  |  |  |  |  |  |  | inhibition at 10 µM [3]: ≥ 50%; inhibition at 10 µM [8]: ≥ 50%; EC50 ([9]; HT-29, HT29, 72 hr, MTT): ≥ 1000 nM; EC50 ([11]; BxPC-3, 72 hr, MTT): ≥ 1000 nM; EC50 ([12]; HepG2, 72 hr, MTT): ≥ 1000 nM; EC50 ([13]; A549, 72 hr, MTT): ≥ 1000 nM |
| CC(=O)c1cc2cc(NCc3cc(NC(=O)c4ccc(CN5CCC(N(C)C)C5)c(C(F)(F)F)c4)ccc3C)cnc2[nH]1 (centres unmarked) [OR0718, N-{3-[(2-Acetyl-1H-pyrrolo[2,3-b]pyridin-5-ylamino)-methyl]-4-methyl-phenyl}-4-(3-dimethylamino-pyrrolidin-1-ylmethyl)-3-trifluoromethyl-benzamide] | ≥ 50 |  | ≥ 50 | ≥ 50 | ≥ 50 | ≥ 50 | ≥ 50 | ≥ 50 | ≤ 100 | 100 to 1000 | 100 to 1000 | 100 to 1000 | ≤ 100 | 100 to 1000 | ≤ 100 | 100 to 1000 | EC50 ([2]; NCI-H1975, 72 h): 100 to 1000 nM; EC50 [18]: 100 to 1000 nM; EC50 [19]: 100 to 1000 nM; EC50 [21]: 100 to 1000 nM |
| CC(=O)c1cc2cc(NCc3cc(NC(=O)c4ccc(CN5CC[C@H](N(C)C)C5)c(C(F)(F)F)c4)ccc3C)cnc2[nH]1 [OR0811, N-{3-[(2-Acetyl-1H-pyrrolo[2,3-b]pyridin-5-ylamino)-methyl]-4-methyl-phenyl}-4-((S)-3-dimethylamino-pyrrolidin-1-ylmethyl)-3-trifluoromethyl-benzamide] | ≥ 50 | ≥ 1000 | ≥ 50 |  |  | ≥ 50 |  | ≥ 50 | 100 to 1000 | 100 to 1000 | 100 to 1000 | 100 to 1000 | 100 to 1000 | ≤ 100 | 100 to 1000 | 100 to 1000 | EC50 [22]: 100 to 1000 nM; EC50 [23]: 100 to 1000 nM; tumor growth in xenografted mice bearing human hepatocellular carcinoma tumors [24]: significantly induced a decrease of tumor growth; Anti-tumor activity (Tumor Growth Inhibition—TGI) ([24]; mice, HepG2 xenograft, end of study vs vehicle): 75%* |
